Measurements as given in article PMC3746001 (ACS chemical biology, 2013).

Columns and labels:
Format in all cases: biochemical
[1] = molecular target: T1, human DNA polymerase eta (hpol η) (Homo sapiens, UniProt Q9Y253); assay: Fluorescence-based polymerase strand-displacement assay, hpol η; settings: IC50 for inhibition of hpol η, 10 nM hpol η, 50 nM DNA, 0.1 mM dTTP; mean ± standard deviation, triplicate
T1 sequence (Q9Y253 1-437): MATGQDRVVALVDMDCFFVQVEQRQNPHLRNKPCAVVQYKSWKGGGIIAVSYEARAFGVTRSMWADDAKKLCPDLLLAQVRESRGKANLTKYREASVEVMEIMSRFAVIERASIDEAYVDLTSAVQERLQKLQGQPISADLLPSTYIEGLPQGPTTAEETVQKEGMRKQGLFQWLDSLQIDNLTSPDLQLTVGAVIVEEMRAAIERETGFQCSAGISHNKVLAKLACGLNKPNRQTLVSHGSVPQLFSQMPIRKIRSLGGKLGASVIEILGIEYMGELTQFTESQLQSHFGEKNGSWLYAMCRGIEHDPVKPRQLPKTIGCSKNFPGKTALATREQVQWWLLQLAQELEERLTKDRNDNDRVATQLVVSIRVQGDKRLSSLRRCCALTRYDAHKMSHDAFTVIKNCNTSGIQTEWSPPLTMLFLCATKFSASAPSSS

[2] = molecular target: Human DNA polymerase beta (hpol β) (Homo sapiens, UniProt P06746); assay: Fluorescence-based polymerase assay, hpol β
[3] = molecular target: T2, hetero-dimeric hpol γ (Homo sapiens, UniProt P54098); assay: Fluorescence-based polymerase assay, hpol γ
T2 sequence (P54098 1-1239): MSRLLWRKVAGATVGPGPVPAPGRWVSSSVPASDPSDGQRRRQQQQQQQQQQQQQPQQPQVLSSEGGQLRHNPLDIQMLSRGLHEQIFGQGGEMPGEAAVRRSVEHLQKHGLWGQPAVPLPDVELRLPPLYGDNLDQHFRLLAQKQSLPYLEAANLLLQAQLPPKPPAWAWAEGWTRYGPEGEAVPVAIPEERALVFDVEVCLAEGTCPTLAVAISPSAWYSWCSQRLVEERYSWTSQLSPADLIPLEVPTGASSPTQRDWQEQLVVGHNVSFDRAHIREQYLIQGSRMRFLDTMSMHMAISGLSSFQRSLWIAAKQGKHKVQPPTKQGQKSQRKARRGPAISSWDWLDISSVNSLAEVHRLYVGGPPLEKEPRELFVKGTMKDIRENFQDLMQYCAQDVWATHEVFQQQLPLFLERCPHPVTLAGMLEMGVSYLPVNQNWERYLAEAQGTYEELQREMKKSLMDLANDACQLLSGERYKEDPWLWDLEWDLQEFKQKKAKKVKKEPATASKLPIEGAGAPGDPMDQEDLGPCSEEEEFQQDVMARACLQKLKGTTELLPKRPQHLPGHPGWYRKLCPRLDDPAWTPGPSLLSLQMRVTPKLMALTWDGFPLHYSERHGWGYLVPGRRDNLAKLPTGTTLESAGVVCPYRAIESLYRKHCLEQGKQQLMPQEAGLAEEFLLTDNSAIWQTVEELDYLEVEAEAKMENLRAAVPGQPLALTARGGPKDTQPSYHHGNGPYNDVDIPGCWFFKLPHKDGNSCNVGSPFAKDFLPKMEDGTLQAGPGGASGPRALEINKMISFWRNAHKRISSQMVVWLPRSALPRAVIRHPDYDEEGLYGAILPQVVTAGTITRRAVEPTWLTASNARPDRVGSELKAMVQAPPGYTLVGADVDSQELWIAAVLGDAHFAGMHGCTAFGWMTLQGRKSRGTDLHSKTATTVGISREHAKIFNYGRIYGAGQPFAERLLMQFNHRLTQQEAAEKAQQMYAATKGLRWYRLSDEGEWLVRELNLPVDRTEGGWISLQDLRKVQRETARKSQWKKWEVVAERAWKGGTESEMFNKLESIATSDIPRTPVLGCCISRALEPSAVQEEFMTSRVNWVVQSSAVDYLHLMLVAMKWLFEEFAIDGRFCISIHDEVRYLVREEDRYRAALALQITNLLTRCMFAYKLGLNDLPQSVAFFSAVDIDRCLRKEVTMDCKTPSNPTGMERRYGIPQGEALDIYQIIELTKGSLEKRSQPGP
T2 sequence (Q9UHN1 26-485 partner limits assumed): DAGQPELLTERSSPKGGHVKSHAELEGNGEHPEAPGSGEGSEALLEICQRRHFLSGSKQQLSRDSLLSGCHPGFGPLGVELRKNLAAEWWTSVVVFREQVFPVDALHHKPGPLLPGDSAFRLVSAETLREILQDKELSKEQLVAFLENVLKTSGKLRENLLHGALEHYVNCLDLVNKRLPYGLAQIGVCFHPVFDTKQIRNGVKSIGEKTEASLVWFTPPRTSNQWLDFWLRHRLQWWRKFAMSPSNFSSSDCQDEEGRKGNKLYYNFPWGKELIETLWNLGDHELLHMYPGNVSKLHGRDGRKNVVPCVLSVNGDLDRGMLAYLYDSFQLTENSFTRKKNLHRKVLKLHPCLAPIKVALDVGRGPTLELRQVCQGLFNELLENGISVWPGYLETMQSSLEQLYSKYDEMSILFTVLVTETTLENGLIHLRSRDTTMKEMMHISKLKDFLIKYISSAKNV

O=C1NC(=S)NC(=O)C1=Cc1cn(C(=O)c2ccccc2Br)c2ccc(Cl)cc12 [ITBA-12, 5-((1-(2-bromobenzoyl)-5-chloro-1H-indol-3-yl)methylene)-2-thioxodihydropyrimidine-4,6(1H,5H)-dione]
IC50 [1]: 29.8 ± 2.7 µM | IC50 [2]: 41 ± 24 µM | Fold difference in IC50 between hpol η and hpol β ([2]; hpol β versus hpol η): ~ 1.4 fold | IC50 [3]: 49 ± 6 µM
